We go through 39 compounds from ChEMBL document CHEMBL5500417, “Discovery of Novel 2-Oxoacetamide Derivatives as B3GAT3 Inhibitors for the Treatment of Hepatocellular Carcinoma” (J Med Chem, 2024).

The IC50 is the point on the concentration scale where inhibition reaches its midpoint. Read a high IC50 as a need for much substance. The Kd is the equilibrium constant for the complex coming apart.

Experiment [1] concerns HCCLM3. Nature of the experiment: In vivo-antitumor activity against human HCCLM3 cells xenografted BALB/c mouse model assessed as reduction in tumor weight at 5 mg/kg, IG once daily measured after 31 days relative to control. The note with it: HCCLM3, po, 744 h, read-out: INH. For orientation: Xenograft models place foreign cells or tissue in a host animal.
Experiment [2] concerns MHCC97H. Nature of the experiment: cells. The note with it: Homo sapiens, 72 h.
Description: Antitumor activity against human MHCC97H cells assessed as inhibition of cell growth measured after 72 hrs by CCK-8 assay
The subject of experiment [3] is MHCC97H. Nature of the experiment: In vivo-antitumor activity against human MHCC97H cells xenografted BALB/c mouse model assessed as tumor growth inhibitor at 5 mg/kg, IG once daily measured after 31 days relative to control. To be noted: po, 744 h, read-out: TGI.
In experiment [4] the test system is HCCLM3. Nature of the experiment: cells. The note with it: Homo sapiens, HCCLM3, 72 h.
Description: Antitumor activity against human HCCLM3 cells assessed as inhibition of cell growth measured after 72 hrs by CCK-8 assay
Experiment [5] concerns the target T1, Galactosylgalactosylxylosylprotein 3-beta-glucuronosyltransferase 3 (Homo sapiens, UniProt O94766).
T1 sequence (O94766 whole entry): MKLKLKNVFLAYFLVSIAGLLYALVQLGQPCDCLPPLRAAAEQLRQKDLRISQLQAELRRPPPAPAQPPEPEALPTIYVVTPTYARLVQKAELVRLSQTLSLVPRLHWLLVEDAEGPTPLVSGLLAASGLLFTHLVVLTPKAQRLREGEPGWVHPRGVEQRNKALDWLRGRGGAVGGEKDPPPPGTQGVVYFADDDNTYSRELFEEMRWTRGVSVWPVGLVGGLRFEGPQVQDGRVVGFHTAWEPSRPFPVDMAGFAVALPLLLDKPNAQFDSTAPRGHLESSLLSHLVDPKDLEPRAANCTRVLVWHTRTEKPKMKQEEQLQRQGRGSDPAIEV
Nature of the experiment: Binding affinity to CM5 sensor chip immobilized human B3GAT3 assessed as dissociation constant by SPR analysis.

Some results are limits rather than exact numbers.

`COc1cc2nccc(Oc3ccc(NC(=O)NC4CC4)c(Cl)c3)c2cc1C(N)=O` [LENVATINIB]: the inhibition in vivo at 5 mg/kg worked out at 94.6% in experiment [1] and 85% in experiment [3]. For the same compound, the IC50 in experiment [2] is greater than 80 µM; in experiment [4] it was 27.8 µM.
`Cc1ccc(N2CCC(NC(=O)C(=O)c3c[nH]c4cc(C(=O)O)ccc34)C2=O)c(Cl)c1` (centres undefined): the half-inhibitory concentration (IC50) in experiment [2] and in experiment [4] was greater than 80 µM in each case.
`Cc1ccc(N2CCC(NC(=O)C(=O)Nc3ccc4c(c3)OCO4)C2=O)c(Cl)c1` (centres undefined): the IC50 in experiment [2] turned out to be 25.7 µM; in experiment [4], 24.7 µM.
As to `Cc1ccc(N2CCC(NC(=O)CC(=O)Nc3ccc4c(c3)Cc3ccccc3-4)C2=O)c(Cl)c1` (centres undefined), the IC50 in experiment [2] was greater than 80 µM; in experiment [4], 57.3 µM.
On to `O=C(NC1CCN(c2ccccc2)C1=O)C(=O)c1c[nH]c2ccc(Br)cc12` (centres undefined), for which the IC50 in experiment [2] and in experiment [4] was greater than 80 µM throughout.
For `Cc1ccc(C(=O)N2CCC(NC(=O)C(=O)c3c[nH]c4ccc(Br)cc34)CC2)c(Cl)c1`, the IC50 in experiment [2] was found to be 28.1 µM; in experiment [4], 1530 µM.
Take `Cc1ccc(N2CCC(NC(=O)C(=O)Nc3ccc(-c4ccccc4)cc3)C2=O)c(Cl)c1` (centres undefined): the Kd in experiment [5] is 289 µM. For the same compound, the values for the IC50 in experiment [2] and in experiment [4] were 5.59 µM and 17.7 µM, respectively.
For `Cc1ccc(N2CCC(NC(=O)C(=O)Nc3ccc4c(c3)Cc3ccccc3-4)C2=O)c(Cl)c1` (centres undefined) the same measures were 291 µM, 14.3 µM and 14.5 µM.
Regarding `Cc1ccc(C(=O)NC2(C)CCN(C(=O)C(=O)c3c[nH]c4ccc(Br)cc34)CC2)c(Cl)c1`, the IC50 is 27.3 µM in experiment [2] and 59.2 µM in experiment [4].
Take `Cc1ccc(C(=O)NCC2CCN(C(=O)C(=O)c3c[nH]c4ccc(Br)cc34)CC2)c(Cl)c1`: the IC50 in experiment [2] worked out at 12.9 µM; in experiment [4] it was 23.6 µM.
For `COC(=O)c1ccc2c(C(=O)C(=O)NC3CCN(c4ccc(C)cc4Cl)C3=O)c[nH]c2c1` (centres undefined) the same measures were 46.8 µM and 54.8 µM.
For `Cc1ccc(C(=O)NC2CCN(C(=O)C(=O)c3c[nH]c4ccc(Br)cc34)CC2)c(Cl)c1` the same measures were 61.5 µM and 60.8 µM.
For `Cc1ccc(N2CCC(NC(=O)C(=O)c3c[nH]c4ccc(C(=O)O)cc34)C2=O)c(Cl)c1` (centres undefined) the same measures were greater than 80 µM and greater than 80 µM.
As for `Cc1ccc(N2CCC(NC(=O)C(=O)c3c[nH]c4ccc(F)cc34)C2=O)c(Cl)c1` (centres undefined), the values for the half-maximal inhibitory concentration (IC50) in experiment [2] and in experiment [4] were 35.1 µM and 44.3 µM, respectively.
For `O=C(NC1CCN(c2ccc(OC(F)(F)F)cc2)C1=O)C(=O)c1c[nH]c2ccc(Br)cc12` (centres undefined), in that order: 15.3 µM and 18.6 µM.
For `Cc1ccc(N2CCC(NC(=O)C(=O)Nc3ccc4c(c3)OCCO4)C2=O)c(Cl)c1` (centres undefined) the same measures were 14.5 µM and 12.2 µM.
For `Cc1ccc(N2CCC(NC(=O)CC(=O)Nc3ccc(-c4ccccc4)cc3)C2=O)c(Cl)c1` (centres undefined) the same measures were 54.7 µM and 60.4 µM.
In the case of `COc1ccc2[nH]cc(C(=O)C(=O)NC3CCN(c4ccc(C)cc4Cl)C3=O)c2c1` (centres undefined), the IC50 in experiment [2] amounted to 37.8 µM; in experiment [4], 34.7 µM.
For `Cc1ccc(C(=O)N2CCN(C(=O)C(=O)c3c[nH]c4ccc(Br)cc34)CC2)c(Cl)c1` the same measures were 16.3 µM and 25.4 µM.
For `Cc1ccc(C(=O)NC2CCN(C(=O)C(=O)c3c[nH]c4ccc(Br)cc34)C2)c(Cl)c1` (centres undefined) the same measures were 19.4 µM and 30.8 µM.
For `Cc1ccc(N2CCC(NC(=O)C(=O)c3c[nH]c4ccc(Br)cc34)C2=O)cc1Cl` (centres undefined), the results for the IC50 in experiment [2] and in experiment [4] were 12 µM and greater than 80 µM, respectively.
For `Cc1ccc(N2CCC(NC(=O)C(=O)N3CCCc4ccccc43)C2=O)c(Cl)c1` (centres undefined), in that order: greater than 80 µM and greater than 80 µM.
For `Cc1ccc(N2CCC(NC(=O)C(=O)c3c[nH]c4ccc(C#N)cc34)C2=O)c(Cl)c1` (centres undefined) the same measures were 33.7 µM and 55.8 µM.
As to `Cc1ccc(N2CCC(NC(=O)C(=O)NC3CCc4ccccc43)C2=O)c(Cl)c1` (centres undefined), the IC50 in experiment [2] was greater than 80 µM; in experiment [4], 61.4 µM.
In the case of `Cc1ccc(N2CCC(NC(=O)C(=O)c3c[nH]c4ccc(C)cc34)C2=O)c(Cl)c1` (centres undefined), the IC50 in experiment [2] amounted to 52.8 µM; in experiment [4], 53.9 µM.
`Cc1ccc(C(=O)N2CCCC(NC(=O)C(=O)c3c[nH]c4ccc(Br)cc34)C2)c(Cl)c1` (centres undefined): the IC50 in experiment [2] came to 17 µM; in experiment [4] it was 31 µM.
Turning to `Cc1ccc(N2CCC(NC(=O)C(=O)Nc3ccc4c(c3)CCC4)C2=O)c(Cl)c1` (centres undefined), the Kd in experiment [5] was 206 µM. For the same compound, the IC50 came to 3.51 µM in experiment [2] and 11.7 µM in experiment [4].
Turning to `Cc1ccc(N2CCC(NC(=O)C(=O)c3c[nH]c4ccc(O)cc34)C2=O)c(Cl)c1` (centres undefined), the concentration for half-maximal inhibition (IC50) in experiment [2] was 72.2 µM; in experiment [4], greater than 80 µM.
For `Cc1ccc(C(=O)N2[C@@H]3CC[C@H]2CN(C(=O)C(=O)c2c[nH]c4ccc(Br)cc24)C3)c(Cl)c1` the same measures were 18.5 µM and 26.7 µM.
On to `Cc1ccc(C(=O)N2CCC(C)(NC(=O)C(=O)c3c[nH]c4ccc(Br)cc34)CC2)c(Cl)c1`, for which the IC50 worked out at 21.3 µM in experiment [2] and 22.2 µM in experiment [4].
For `Cc1ccc(N2CCC(NC(=O)C(=O)c3c[nH]c4ccc(Cl)cc34)C2=O)c(Cl)c1` (centres undefined) the same measures were 18.4 µM and 31 µM.
For `Cc1ccc(N2CCC(NC(=O)C(=O)Nc3ccc4c(c3)C(C)(C)c3ccccc3-4)C2=O)c(Cl)c1` (centres undefined) the same measures were 9.7 µM and greater than 80 µM.
Take `Cc1ccc(N2CCC(NC(=O)C(=O)c3c[nH]c4ccc(Br)cc34)C2=O)c(Cl)c1` (centres undefined): the Kd in experiment [5] was found to be 113 µM. In addition, the IC50 in experiment [2] worked out at 6.19 µM; in experiment [4] it was 15.8 µM.
Regarding `O=C(NC1CCN(c2ccc(F)cc2)C1=O)C(=O)c1c[nH]c2ccc(Br)cc12` (centres undefined), the figures for the IC50 in experiment [2] and in experiment [4] were 11.8 µM and 24.9 µM, respectively.
As to `Cc1ccc(N2CCC(NC(=O)C(=O)c3c[nH]c4ccccc34)C2=O)c(Cl)c1` (centres undefined), the IC50 in experiment [2] was determined as 52.7 µM; in experiment [4], 60 µM.
For `Cc1ccc(N2CCC(NC(=O)C(=O)c3c[nH]c4ccc(Br)cc34)C2=O)cc1` (centres undefined) the same measures were greater than 80 µM and greater than 80 µM.
As to `Cc1ccc(N2CCC(NC(=O)C(=O)c3c[nH]c4ccc(N)cc34)C2=O)c(Cl)c1` (centres undefined), the IC50 in experiment [2] and in experiment [4] was greater than 80 µM each time.
As for `Cc1ccc(C(=O)N(C)C2CCN(C(=O)C(=O)c3c[nH]c4ccc(Br)cc34)CC2)c(Cl)c1`, the IC50 in experiment [2] was 11.8 µM; in experiment [4] it was 22.2 µM.
For `Cc1ccc(C(=O)N2CCC(NC(=O)C(=O)c3c[nH]c4ccc(Br)cc34)C2)c(Cl)c1` (centres undefined), in that order: 13 µM and 21.3 µM.
